Reference: patent US4684664A, “Derivatives of β-(4-isocyano-1,2,3,4-diepoxycyclopentyl) acrylic acid” (Kureha Kagaku Kogyo Kabushiki Kaisha, priority 1984, dated 1987)
Values after ≈ are worked out from the molar mass of the structure shown.

Tests used:
Type in all cases: cell-based
[1] = system: Escherichia coli NIHJ-JC-2; test: Antibacterial activity, agar-dilution MIC, organism No. 5; details: Escherichia coli, NIHJJC2; Organism No. 5, bouillon-agar; read-out: Minimum Inhibitory Concentration
From the text: (§1) Agar-dilution method was used for determination of the antibacterial activity and antifungal activity while using bouillon-agar culture medium, and the minimum inhibitory concentration of the specimen was expressed by μg/ml of the culture medium.

[2] = system: Mycoplasma pneumoniae IID817; test: Antimycoplasmal activity, MIC by phenol red colour change, organism No. 28; details: Mycoplasma, IID817; Organism No. 28, PPLO broth + 1% glucose, 37° C.; read-out: Minimum Inhibitory Concentration (MIC)
Description: Mycoplasma pneumoniae IID817 was used as the test microorganism in a culture medium prepared by adding 1% of glucose to "PPLO broth (manufactured by Difco Co.) liquid culture medium" at 37° C. with phenol red as an indicator, thereby culturing the test microorganism.

[3] = system: Proteus morganii IFO 3848; test: Antibacterial activity, agar-dilution MIC, organism No. 18; details: Morganella morganii, IFO3848; Organism No. 18, bouillon-agar; read-out: Minimum Inhibitory Concentration
From the text: as §1

[4] = system: Proteus vulgaris OX-19; test: Antibacterial activity, agar-dilution MIC, organism No. 20; details: Proteus vulgaris, OX19; Organism No. 20, bouillon-agar; read-out: Minimum Inhibitory Concentration
From the text: as §1

[5] = system: Escherichia coli K12 C600 IAM 1264; test: Antibacterial activity, agar-dilution MIC, organism No. 6; details: Escherichia coli, IAM1264; Organism No. 6, bouillon-agar; read-out: Minimum Inhibitory Concentration
From the text: as §1

[6] = system: Proteus vulgaris HX-19; test: Antibacterial activity, agar-dilution MIC, organism No. 21; details: Proteus vulgaris, HX19; Organism No. 21, bouillon-agar; read-out: Minimum Inhibitory Concentration
From the text: as §1

[7] = system: Enterobacter aerogenes ATCC 13048; test: Antibacterial activity, agar-dilution MIC, organism No. 23; details: Klebsiella aerogenes, ATCC13048; Organism No. 23, bouillon-agar; read-out: Minimum Inhibitory Concentration
From the text: as §1

[8] = system: Micrococcus luteus ATCC 9341; test: Antibacterial activity, agar-dilution MIC, organism No. 25; details: Micrococcus luteus, ATCC9341; Organism No. 25, bouillon-agar; read-out: Minimum Inhibitory Concentration
From the text: as §1

[9] = system: Pseudomonas aeruginosa IFO 3445; test: Antibacterial activity, agar-dilution MIC, organism No. 15; details: Pseudomonas aeruginosa, IFO3445; Organism No. 15, bouillon-agar; read-out: Minimum Inhibitory Concentration
From the text: as §1

[10] = system: Proteus mirabilis IFO 3849; test: Antibacterial activity, agar-dilution MIC, organism No. 19; details: Proteus mirabilis, IFO3849; Organism No. 19, bouillon-agar; read-out: Minimum Inhibitory Concentration
From the text: as §1

[11] = system: Salmonella typhi 901; test: Antibacterial activity, agar-dilution MIC, organism No. 9; details: Salmonella enterica, TYPHI, read-out: Minimum Inhibitory Concentration
From the text: as §1

[12] = system: Streptococcus faecium IFO 3826; test: Antibacterial activity, agar-dilution MIC, organism No. 27; details: Enterococcus faecium, IFO3826; Organism No. 27, bouillon-agar; read-out: Minimum Inhibitory Concentration
From the text: as §1

[13] = system: Salmonella typhimurium IID 971; test: Antibacterial activity, agar-dilution MIC, organism No. 8; details: Salmonella enterica; Organism No. 8, bouillon-agar; read-out: Minimum Inhibitory Concentration
From the text: as §1

[14] = system: Proteus rettgeri IFO 3850; test: Antibacterial activity, agar-dilution MIC, organism No. 22; details: Providencia rettgeri, IFO3850; Organism No. 22, bouillon-agar; read-out: Minimum Inhibitory Concentration
From the text: as §1

[15] = system: Staphylococcus aureus Terajima; test: Antibacterial activity, agar-dilution MIC, organism No. 2; details: Staphylococcus aureus; Organism No. 2, bouillon-agar; read-out: Minimum Inhibitory Concentration
From the text: as §1

[16] = system: Bacillus subtilis ATCC 6633; test: Antibacterial activity, agar-dilution MIC, organism No. 14; details: Bacillus subtilis, ATCC6633; Organism No. 14, bouillon-agar; read-out: Minimum Inhibitory Concentration
From the text: as §1

[17] = system: Salmonella enteritidis G 14; test: Antibacterial activity, agar-dilution MIC, organism No. 12; details: Salmonella enterica, ENTERITIDIS; Organism No. 12, bouillon-agar; read-out: Minimum Inhibitory Concentration
From the text: as §1

[18] = system: Pseudomonas aeruginosa PAO 1; test: Antibacterial activity, agar-dilution MIC, organism No. 17; details: Pseudomonas aeruginosa, PAO1; Organism No. 17, bouillon-agar; read-out: Minimum Inhibitory Concentration
From the text: as §1

[19] = system: Aspergillus niger IFO 6342; test: Antifungal activity, agar-dilution MIC, organism No. 30; details: Aspergillus niger, IFO6342; Organism No. 30, bouillon-agar; read-out: Minimum Inhibitory Concentration
From the text: as §1

[20] = system: Streptococcus pyogenes Cook; test: Antibacterial activity, agar-dilution MIC, organism No. 4; details: Streptococcus pyogenes; Organism No. 4, bouillon-agar; read-out: Minimum Inhibitory Concentration
From the text: as §1

[21] = system: Enterobacter cloacae 963; test: Antibacterial activity, agar-dilution MIC, organism No. 24; details: Enterobacter cloacae, 963; Organism No. 24, bouillon-agar; read-out: Minimum Inhibitory Concentration
From the text: as §1

[22] = system: Candida albicans IAM 4905; test: Antifungal activity, agar-dilution MIC, organism No. 29; details: Candida albicans, IAM4905; Organism No. 29, bouillon-agar; read-out: Minimum Inhibitory Concentration
From the text: as §1

[23] = system: Streptococcus pyogenes IFO 3340; test: Antibacterial activity, agar-dilution MIC, organism No. 26; details: Streptococcus pyogenes, IFO3340; Organism No. 26, bouillon-agar; read-out: Minimum Inhibitory Concentration
From the text: as §1

[24] = system: Pseudomonas aeruginosa NCTC 10490; test: Antibacterial activity, agar-dilution MIC, organism No. 16; details: Pseudomonas aeruginosa, NCTC10490; Organism No. 16, bouillon-agar; read-out: Minimum Inhibitory Concentration
From the text: as §1

[25] = system: Klebsiella pneumoniae PCI-602; test: Antibacterial activity, agar-dilution MIC, organism No. 7; details: Klebsiella pneumoniae, PCI602; Organism No. 7, bouillon-agar; read-out: Minimum Inhibitory Concentration
From the text: as §1

[26] = system: Salmonella shottmuelleri 8006; test: Antibacterial activity, agar-dilution MIC, organism No. 11; details: Salmonella, 8006; Organism No. 11, bouillon-agar; read-out: Minimum Inhibitory Concentration
From the text: as §1

[27] = system: Staphylococcus aureus MS 353; test: Antibacterial activity, agar-dilution MIC, organism No. 3; details: Staphylococcus aureus, MS353; Organism No. 3, bouillon-agar; read-out: Minimum Inhibitory Concentration
From the text: as §1

[28] = system: Staphylococcus aureus FDA 209PJc-1; test: Antibacterial activity, agar-dilution MIC, organism No. 1; details: Staphylococcus aureus, FDA209PJC1; Organism No. 1, bouillon-agar; read-out: Minimum Inhibitory Concentration
From the text: as §1

[29] = system: Salmonella paratyphi-A 1015; test: Antibacterial activity, agar-dilution MIC, organism No. 10; details: Salmonella enterica, PARATYPHI, read-out: Minimum Inhibitory Concentration
From the text: as §1

SMILES | MIC [1] | MIC [2] | MIC [3] | MIC [4] | MIC [5] | MIC [6] | MIC [7] | MIC [8] | MIC [9] | MIC [10] | MIC [11] | MIC [12] | MIC [13] | MIC [14] | MIC [15] | MIC [16] | MIC [17] | MIC [18] | MIC [19] | MIC [20] | other results
[C-]#[N+]C12CC3(/C=C/C(=O)Nc4ccc(Br)cc4)OC3C1O2 (centres unmarked) [compound 44] | > 200 µg/mL | < 0.2 µg/mL | 3.13 µg/mL (≈ 9.02 µM) | 6.25 µg/mL (≈ 18 µM) | > 200 µg/mL | 0.1 µg/mL (≈ 0.288 µM) | > 200 µg/mL | < 0.05 µg/mL | > 200 µg/mL | > 200 µg/mL | 12.5 µg/mL (≈ 36 µM) | 200 µg/mL (≈ 576 µM) | 50 µg/mL (≈ 144 µM) | 100 µg/mL (≈ 288 µM) | 3.13 µg/mL (≈ 9.02 µM) | 25 µg/mL (≈ 72 µM) | 50 µg/mL (≈ 144 µM) | > 200 µg/mL | 1.56 µg/mL (≈ 4.49 µM) | > 200 µg/mL | MIC [21]: > 200 µg/mL; MIC [22]: 0.39 µg/mL (≈ 1.12 µM); MIC [23]: 12.5 µg/mL (≈ 36 µM); MIC [24]: > 200 µg/mL; MIC [25]: 0.2 µg/mL (≈ 0.576 µM); MIC [26]: 3.13 µg/mL (≈ 9.02 µM); MIC [27]: 0.39 µg/mL (≈ 1.12 µM); MIC [28]: 0.39 µg/mL (≈ 1.12 µM); MIC [29]: 3.13 µg/mL (≈ 9.02 µM)
[C-]#[N+]C12CC3(/C=C/C(=O)Nc4ccc(C)cc4)OC3C1O2 (centres unmarked) [compound 37] | 25 µg/mL (≈ 88.6 µM) | 0.2 µg/mL | 12.5 µg/mL (≈ 44.3 µM) | 0.2 µg/mL (≈ 0.708 µM) | 25 µg/mL (≈ 88.6 µM) | < 0.05 µg/mL | 100 µg/mL (≈ 354 µM) | < 0.05 µg/mL | > 200 µg/mL | 200 µg/mL (≈ 708 µM) | 1.56 µg/mL (≈ 5.53 µM) | 25 µg/mL (≈ 88.6 µM) | 6.25 µg/mL (≈ 22.1 µM) | 3.13 µg/mL (≈ 11.1 µM) | 1.56 µg/mL (≈ 5.53 µM) | 6.25 µg/mL (≈ 22.1 µM) | 1.56 µg/mL (≈ 5.53 µM) | > 200 µg/mL | 1.56 µg/mL (≈ 5.53 µM) | 12.5 µg/mL (≈ 44.3 µM) | MIC [21]: 50 µg/mL (≈ 177 µM); MIC [22]: 0.39 µg/mL (≈ 1.38 µM); MIC [23]: 1.56 µg/mL (≈ 5.53 µM); MIC [24]: > 200 µg/mL; MIC [25]: 0.1 µg/mL (≈ 0.354 µM); MIC [26]: 0.2 µg/mL (≈ 0.708 µM); MIC [27]: 0.39 µg/mL (≈ 1.38 µM); MIC [28]: 0.39 µg/mL (≈ 1.38 µM); MIC [29]: 0.2 µg/mL (≈ 0.708 µM)
[C-]#[N+]C12CC3(/C=C/C(=O)Nc4cccc(Cl)c4)OC3C1O2 (centres unmarked) [compound 41] | > 200 µg/mL | < 0.2 µg/mL | 0.1 µg/mL (≈ 0.33 µM) | 0.78 µg/mL (≈ 2.58 µM) | 200 µg/mL (≈ 661 µM) | < 0.05 µg/mL | > 200 µg/mL | < 0.05 µg/mL | > 200 µg/mL | > 200 µg/mL | 3.13 µg/mL (≈ 10.3 µM) | 3.13 µg/mL (≈ 10.3 µM) | 3.13 µg/mL (≈ 10.3 µM) | 3.13 µg/mL (≈ 10.3 µM) | 0.39 µg/mL (≈ 1.29 µM) | 1.56 µg/mL (≈ 5.15 µM) | 3.13 µg/mL (≈ 10.3 µM) | > 200 µg/mL | 1.56 µg/mL (≈ 5.15 µM) | > 200 µg/mL | MIC [21]: 50 µg/mL (≈ 165 µM); MIC [22]: 0.8 µg/mL (≈ 2.64 µM); MIC [23]: 0.39 µg/mL (≈ 1.29 µM); MIC [24]: > 200 µg/mL; MIC [25]: < 0.05 µg/mL; MIC [26]: 0.2 µg/mL (≈ 0.661 µM); MIC [27]: 0.1 µg/mL (≈ 0.33 µM); MIC [28]: 0.2 µg/mL (≈ 0.661 µM); MIC [29]: 0.78 µg/mL (≈ 2.58 µM)
[C-]#[N+]C12CC3(/C=C/C(=O)N[C@@H](CC(=O)OCc4ccccc4)C(=O)OCc4ccccc4)OC3C1O2 (some centres unmarked) [Compound No. 29] | > 200 µg/mL | > 100 µg/mL | > 200 µg/mL | > 200 µg/mL | > 200 µg/mL | 25 µg/mL (≈ 51.2 µM) | > 200 µg/mL | < 1.56 µg/mL | > 200 µg/mL | > 200 µg/mL | > 200 µg/mL | 6.25 µg/mL (≈ 12.8 µM) | > 200 µg/mL | > 200 µg/mL | 6.25 µg/mL (≈ 12.8 µM) | 25 µg/mL (≈ 51.2 µM) | > 200 µg/mL | > 200 µg/mL | > 100 µg/mL | > 200 µg/mL | MIC [21]: > 200 µg/mL; MIC [22]: > 100 µg/mL; MIC [23]: > 200 µg/mL; MIC [24]: > 200 µg/mL; MIC [25]: > 200 µg/mL; MIC [26]: > 200 µg/mL; MIC [27]: 3.13 µg/mL (≈ 6.41 µM); MIC [28]: < 1.56 µg/mL; MIC [29]: > 200 µg/mL
